Test results taken from paper PMC7815396, “Hypoglycemic Effect of Calea urticifolia (Mill.) DC” (Evidence-based Complementary and Alternative Medicine : eCAM, 2021).

Tests used:
[1] = target: T1, alpha-glucosidases from Saccharomyces cerevisiae; assay: p-nitrophenol release at […] nm; assay type: biochemical; conditions: 2 mM p-nitrophenyl-alpha-D-glucopyranoside; 0.1 M phosphate pH 6.8
T1 construct: gene MAL12; commercial yeast enzyme (Sigma G5003), native

[2] = target: T2, alpha-glucosidases from rat intestine; assay: p-nitrophenol release at […] nm; assay type: biochemical; conditions: 2 mM p-nitrophenyl-alpha-D-glucopyranoside; 0.1 M phosphate pH 6.8; crude intestinal extract
T2 construct: gene Si; crude rat intestinal extract (Sigma I1630); enzymes not separated

For `C[C@H]1O[C@H](O[C@H]2[C@H](O)[C@@H](O)[C@@H](O[C@H]3[C@H](O)[C@@H](O)C(O)O[C@@H]3CO)O[C@@H]2CO)[C@H](O)[C@@H](O)[C@@H]1N[C@H]1C=C(CO)[C@@H](O)[C@H](O)[C@H]1O` (some centres unmarked) [Acarbose], the “S. cerevisiae / α-Glucosidase enzymes / IC50” value [1] was 231.9 µg/mL and the “Rat intestine / α-Glucosidase enzymes / IC50” value [2] was 18.6 µg/mL.
